Measurements: patent EP3875080B1, “DOSAGE FORM PROVIDING PROLONGED RELEASE OF […] SALT” (priority 2020, dated 2021)
Structures can show the parent of a compound that is named as a salt. Where two headings read alike, the source gives them in different places.

Experiments:
[1] = in vivo, cited from earlier work
[2] = intrinsic dissolution (dissolution rate), Wood's apparatus; assay type: physicochemical
Experimental: 100 mg of Tapentadol, either in form of the hydrochloride salt or the dihydrogenphosphate salt (mixed form [batch with fine particles], pure hemihydrate or pure anhydrate) were compressed at a compressing force of 200 kg (gravitational) for 1 minute at a surface of 0.5 cm^2. The thus obtained compressed samples were investigated for their dissolution rate in a Wood's apparatus at 37 °C in 900 mL of dissolution medium at different pH values and a rotational speed of the paddle of 50 rpm.

[3] = in vitro dissolution of Tapentadol from tablets, paddle apparatus Ph. Eur.; assay type: physicochemical; settings: for ethanol induced dose dumping: 0.1 N HCl (pH 1.0) containing 40 vol.-% ethanol compared to pH 1.0
Experimental: The in vitro dissolution of Tapentadol from the tablets (drug load 250 mg, C-1, I-1 and I-3) was measured in a paddle apparatus in accordance with Ph. Eur., equipped with sinker, at a rotational speed of 50 rpm at 37 °C in 900 ml of different dissolution media having different pH values. The experimental results are compiled in the table here below:
The in vitro dissolution of Tapentadol from the tablets (drug load 250 mg, I-4) was measured in a paddle apparatus in accordance with Ph. Eur., equipped with sinker, at a rotational speed of 50 rpm at 37 °C in 900 ml of 0.1 N HCl without ethanol (pH 1.0) and in 0.1 N HCl with 40 vol.-% ethanol (pH 1.0).

[4] = thermodynamic solubility (saturation solubility); assay type: physicochemical; settings: for solubility thermodynamic at 24 h: thermodynamic from solid, read-out: thermodynamic solubility, assay expressed as base
Experimental: The thermodynamic solubility of Tapentadol hydrochloride and of Tapentadol dihydrogen-phosphate (mixed form, batch with fine particles) was determined as saturation solubility in various media at various pH values. The solutions were stirred for 24 hours at 25 °C and the pH values of the solutions at the start and at the end of the experiments were measured. The dissolved amount of Tapentadol was quantified by HPLC (free base of Tapentadol).

COc1ccc2c3c1O[C@H]1C(=O)CC[C@H]4[C@@H](C2)N(C)CC[C@]314 [Hydrocodone]
Maximum individual Cmax ratio with 40% alcohol [1]: 3.9
mean increase in Cmax ratio relative to drug co-ingested with 0% alcohol [1]: 2.3

CN1CC[C@]23c4c5ccc(O)c4O[C@H]2C(=O)CC[C@@]3(O)[C@H]1C5 [Oxymorphone]
Maximum individual Cmax ratio with 40% alcohol [1]: 2.70
mean increase in Cmax ratio relative to drug co-ingested with 0% alcohol [1]: 1.70

CC[C@@H](c1cccc(O)c1)[C@@H](C)CN(C)C.O=P(O)(O)O [Tapentadol dihydrogenphosphate anhydrate]
intrinsic dissolution (dissolution rate) ([2]; pH 1.2, 0 min): 0%
intrinsic dissolution (dissolution rate) ([2]; pH 1.2, 1 min): 15%
intrinsic dissolution (dissolution rate) ([2]; pH 1.2, 3 min): 37%
intrinsic dissolution (dissolution rate) ([2]; pH 1.2, 5 min): 57%
intrinsic dissolution (dissolution rate) ([2]; pH 1.2, 7 min): 75%
intrinsic dissolution (dissolution rate) ([2]; pH 1.2, 9 min): 85%
intrinsic dissolution (dissolution rate) ([2]; pH 6.8, 0 min): 0%
intrinsic dissolution (dissolution rate) ([2]; pH 6.8, 1 min): 13%
intrinsic dissolution (dissolution rate) ([2]; pH 6.8, 3 min): 36%
intrinsic dissolution (dissolution rate) ([2]; pH 6.8, 5 min): 66%
intrinsic dissolution (dissolution rate) ([2]; pH 6.8, 7 min): 90%
intrinsic dissolution (dissolution rate) ([2]; pH 6.8, 9 min): 96%

CC[C@@H](c1cccc(O)c1)[C@@H](C)CN(C)C.CC[C@@H](c1cccc(O)c1)[C@@H](C)CN(C)C.O.O=P(O)(O)O.O=P(O)(O)O [Tapentadol dihydrogenphosphate hemihydrate]
intrinsic dissolution (dissolution rate) ([2]; pH 1.2, 0 min): 0%
intrinsic dissolution (dissolution rate) ([2]; pH 1.2, 1 min): 14%
intrinsic dissolution (dissolution rate) ([2]; pH 1.2, 3 min): 37%
intrinsic dissolution (dissolution rate) ([2]; pH 1.2, 5 min): 54%
intrinsic dissolution (dissolution rate) ([2]; pH 1.2, 7 min): 72%
intrinsic dissolution (dissolution rate) ([2]; pH 1.2, 9 min): 84%
intrinsic dissolution (dissolution rate) ([2]; pH 6.8, 0 min): 0%
intrinsic dissolution (dissolution rate) ([2]; pH 6.8, 1 min): 12%
intrinsic dissolution (dissolution rate) ([2]; pH 6.8, 3 min): 36%
intrinsic dissolution (dissolution rate) ([2]; pH 6.8, 5 min): 66%
intrinsic dissolution (dissolution rate) ([2]; pH 6.8, 7 min): 80%
intrinsic dissolution (dissolution rate) ([2]; pH 6.8, 9 min): 83%

CC[C@@H](c1cccc(O)c1)[C@@H](C)CN(C)C [Tapentadol hydrochloride, reference compound]
intrinsic dissolution (dissolution rate) ([2]; pH 1.0, 0 min): 0%
intrinsic dissolution (dissolution rate) ([2]; pH 1.0, 1 min): 52%
intrinsic dissolution (dissolution rate) ([2]; pH 1.0, 3 min): 95%
intrinsic dissolution (dissolution rate) ([2]; pH 1.0, 5 min): 99%
intrinsic dissolution (dissolution rate) ([2]; pH 1.0, 7 min): 99%
intrinsic dissolution (dissolution rate) ([2]; pH 1.0, 9 min): 99%
intrinsic dissolution (dissolution rate) ([2]; pH 4.5, 0 min): 0%
intrinsic dissolution (dissolution rate) ([2]; pH 4.5, 1 min): 60%
intrinsic dissolution (dissolution rate) ([2]; pH 4.5, 3 min): 91%
intrinsic dissolution (dissolution rate) ([2]; pH 4.5, 5 min): 95%
intrinsic dissolution (dissolution rate) ([2]; pH 4.5, 7 min): 95%
intrinsic dissolution (dissolution rate) ([2]; pH 4.5, 9 min): 96%
intrinsic dissolution (dissolution rate) ([2]; pH 6.8, 0 min): 0%
intrinsic dissolution (dissolution rate) ([2]; pH 6.8, 1 min): 38%
intrinsic dissolution (dissolution rate) ([2]; pH 6.8, 3 min): 79%
intrinsic dissolution (dissolution rate) ([2]; pH 6.8, 5 min): 92%
intrinsic dissolution (dissolution rate) ([2]; pH 6.8, 7 min): 94%
intrinsic dissolution (dissolution rate) ([2]; pH 6.8, 9 min): 94%
intrinsic dissolution (dissolution rate) ([2]; pH 7.4, 0 min): 0%
intrinsic dissolution (dissolution rate) ([2]; pH 7.4, 1 min): 27%
intrinsic dissolution (dissolution rate) ([2]; pH 7.4, 3 min): 65%
intrinsic dissolution (dissolution rate) ([2]; pH 7.4, 5 min): 80%
intrinsic dissolution (dissolution rate) ([2]; pH 7.4, 7 min): 89%
intrinsic dissolution (dissolution rate) ([2]; pH 7.4, 9 min): 92%
ethanol induced dose dumping [3]: no ethanol induced dose dumping
pH end ([4]; 0.1 M HCl, pH start 1.11): 0.83
pH end ([4]; 0.15N NaOH, pH start 13.08): 8.21
pH end ([4]; SIF sp pH 6.8, pH start 6.82): 6.23
pH end ([4]; acetate pH 4.5, pH start 4.54): 4.29
pH end ([4]; citrate pH 6.8, pH start 6.83): 6.17
pH end ([4]; citrate pH 7.4, pH start 7.39): 6.33
solubility thermodynamic at 24 h ([4]; pH 1.11, aqueous buffer, 0.1 M HCl, pH start 1.11, 24 hours at 25 °C): 312 mg/mL
solubility thermodynamic at 24 h ([4]; pH 13.08, aqueous buffer, 0.15N NaOH, pH start 13.08, 24 hours at 25 °C): 66 mg/mL
pH end ([4]; water): 4.63

CC[C@@H](c1cccc(O)c1)[C@@H](C)CN(C)C [Tapentadol, (-)-(1R,2R)-3-(3-dimethylamino-1-ethyl-2-methyl-propyl)-phenol]
Maximum individual Cmax ratio with 40% alcohol ([1]; 100 mg): 4.38
mean increase in Cmax ratio relative to drug co-ingested with 0% alcohol ([1]; 100 mg): 1.48
Maximum individual Cmax ratio with 40% alcohol ([1]; 250 mg): 2.67
mean increase in Cmax ratio relative to drug co-ingested with 0% alcohol ([1]; 250 mg): 1.28

Tapentadol dihydrogenphosphate
dissolution rate compared with Tapentadol hydrochloride ([2]; at all tested pH values): significantly slower dissolution rate
intrinsic dissolution (dissolution rate) ([2]; pH 1.0, 0 min): 0%
intrinsic dissolution (dissolution rate) ([2]; pH 1.0, 1 min): 14%
intrinsic dissolution (dissolution rate) ([2]; pH 1.0, 3 min): 35%
intrinsic dissolution (dissolution rate) ([2]; pH 1.0, 5 min): 56%
intrinsic dissolution (dissolution rate) ([2]; pH 1.0, 7 min): 78%
intrinsic dissolution (dissolution rate) ([2]; pH 1.0, 9 min): 84%
intrinsic dissolution (dissolution rate) ([2]; pH 4.5, 0 min): 0%
intrinsic dissolution (dissolution rate) ([2]; pH 4.5, 1 min): 12%
intrinsic dissolution (dissolution rate) ([2]; pH 4.5, 3 min): 30%
intrinsic dissolution (dissolution rate) ([2]; pH 4.5, 5 min): 49%
intrinsic dissolution (dissolution rate) ([2]; pH 4.5, 7 min): 73%
intrinsic dissolution (dissolution rate) ([2]; pH 4.5, 9 min): 86%
intrinsic dissolution (dissolution rate) ([2]; pH 6.8, 0 min): 0%
intrinsic dissolution (dissolution rate) ([2]; pH 6.8, 1 min): 11%
intrinsic dissolution (dissolution rate) ([2]; pH 6.8, 3 min): 29%
intrinsic dissolution (dissolution rate) ([2]; pH 6.8, 5 min): 48%
intrinsic dissolution (dissolution rate) ([2]; pH 6.8, 7 min): 66%
intrinsic dissolution (dissolution rate) ([2]; pH 6.8, 9 min): 77%
intrinsic dissolution (dissolution rate) ([2]; pH 7.4, 0 min): 0%
intrinsic dissolution (dissolution rate) ([2]; pH 7.4, 1 min): 12%
intrinsic dissolution (dissolution rate) ([2]; pH 7.4, 3 min): 30%
intrinsic dissolution (dissolution rate) ([2]; pH 7.4, 5 min): 46%
intrinsic dissolution (dissolution rate) ([2]; pH 7.4, 7 min): 63%
intrinsic dissolution (dissolution rate) ([2]; pH 7.4, 9 min): 78%
ethanol induced dose dumping [3]: no ethanol induced dose dumping
additional retardant effect in aqueous ethanol compared to Tapentadol hydrochloride ([3]; 0.1 N HCl (pH 1.0) containing 40 vol.-% ethanol, same excipients in same amounts): significantly stronger
time difference to a release of 70% compared to Tapentadol hydrochloride ([3]; pH 4.5, aqueous buffer without ethanol): more than one
pH end ([4]; 0.1 M HCl, pH start 1.11): 2.55
thermodynamic solubility, assay expressed as base ([4]; 0.1 M HCl, pH start 1.11, 24 hours at 25 °C): 24.3 g/100 mL
pH end ([4]; 0.15N NaOH, pH start 13.08): 8.09
thermodynamic solubility, assay expressed as base ([4]; 0.15N NaOH, pH start 13.08, 24 hours at 25 °C): 6.5 g/100 mL
pH end ([4]; SIF sp pH 6.8, pH start 6.82): 2.81
thermodynamic solubility, assay expressed as base ([4]; SIF sp pH 6.8, pH start 6.82, 24 hours at 25 °C): 20.2 g/100 mL
pH end ([4]; acetate pH 4.5, pH start 4.54): 2.81
thermodynamic solubility, assay expressed as base ([4]; acetate pH 4.5, pH start 4.54, 24 hours at 25 °C): 21.2 g/100 mL
pH end ([4]; citrate pH 6.8, pH start 6.83): 3.15
thermodynamic solubility, assay expressed as base ([4]; citrate pH 6.8, pH start 6.83, 24 hours at 25 °C): 19.3 g/100 mL
pH end ([4]; citrate pH 7.4, pH start 7.39): 3.16
thermodynamic solubility, assay expressed as base ([4]; citrate pH 7.4, pH start 7.39, 24 hours at 25 °C): 19.0 g/100 mL
thermodynamic solubility compared with Tapentadol hydrochloride ([4]; under all tested conditions): below that of Tapentadol hydrochloride
pH end ([4]; water): 2.75
thermodynamic solubility, assay expressed as base ([4]; water, 24 hours at 25 °C): 21.4 g/100 mL
